Read-outs that look alike come from different tables or passages of the source.
Assays:
[1] = target: BRD4-BD1 (bromodomain-containing protein 4) (Homo sapiens, UniProt O60885); test: biochemical
in vitro = conditions: human, a431 cells
[2] = test system: HMGA2 (mammalian high mobility group protein AT-hook 2); conditions: read-out: Alpha Screen IC50; DNA-binding compound; inhibitor
[3] = test system: HMGA2 (mammalian high mobility group protein AT-hook 2); conditions: read-out: Lance Screen IC50; DNA-binding compound; inhibitor

Row | Structure (SMILES) | IC50 [1] | CC50 (in vitro) | IC50 [2] | IC50 [3]
1 | O=C1c2c(O)ccc(O)c2C(=O)c2c(NCCNCCO)ccc(NCCNCCO)c21 [Mitoxantrone] | 990 nM | 1650 nM | 180 nM | 1770 nM
2 | Nc1ccc(-c2nc3ccc(-c4nc5ccc(N)cc5[nH]4)cc3[nH]2)cc1 [Ro 90-7501] | 16900 nM | > 100000 nM | – | –
3 | COc1cccc2c1C(=O)c1c(O)c3c(c(O)c1C2=O)C[C@@](O)(C(C)=O)C[C@@H]3O[C@H]1C[C@H](NCc2ccc(CN[C@@H]3C[C@@H](O[C@H]4C[C@](O)(C(C)=O)Cc5c(O)c6c(c(O)c54)C(=O)c4c(OC)cccc4C6=O)O[C@H](C)[C@@H]3O)cc2)[C@H](O)[C@H](C)O1 [WP631] | 2050 nM | 170 nM | 44 nM | 170 nM

Further lines, with some results ahead:

Row | IC50 [1] | Structure (SMILES) | CC50 (in vitro) | IC50 [2] | IC50 [3]
4 | 5000 nM | O=C(O)C1=CC(=C(c2ccc(O)c(C(=O)O)c2)c2ccc(O)c(C(=O)O)c2)C=CC1=O [aurintricarboxylic acid] | > 100000 nM | – | –
5 | > 100000 nM | Cc1ccc(C(=O)Nc2ccc(S(=O)(=O)O)c3cc(S(=O)(=O)O)cc(S(=O)(=O)O)c23)cc1NC(=O)c1cccc(NC(=O)Nc2cccc(C(=O)Nc3cc(C(=O)Nc4ccc(S(=O)(=O)O)c5cc(S(=O)(=O)O)cc(S(=O)(=O)O)c45)ccc3C)c2)c1 [suramin] | > 100000 nM | – | –

From paper doi:10.1101/838656v1 (biorxiv, 2019)
